The results in this text go back to patent US9518000B2, “Bicyclo [2.2.1] acid GPR120 modulators” (BRISTOL-MYERS SQUIBB COMPANY, priority 2013, dated 2016).

As usually defined, the EC50 is the concentration needed to bring the measured effect to its halfway point.

human GPR120, sequence (Q5NUL3 whole entry): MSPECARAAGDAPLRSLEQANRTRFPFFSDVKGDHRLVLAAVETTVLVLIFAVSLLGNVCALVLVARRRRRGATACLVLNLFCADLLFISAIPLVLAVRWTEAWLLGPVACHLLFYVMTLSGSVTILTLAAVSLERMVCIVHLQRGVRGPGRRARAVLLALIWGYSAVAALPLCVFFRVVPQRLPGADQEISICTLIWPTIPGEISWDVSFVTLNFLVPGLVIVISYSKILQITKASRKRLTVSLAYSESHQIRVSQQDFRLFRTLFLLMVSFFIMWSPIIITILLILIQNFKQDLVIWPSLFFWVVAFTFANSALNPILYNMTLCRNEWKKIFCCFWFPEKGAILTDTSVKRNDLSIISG

The assay has as its target human GPR120 (Homo sapiens (Human), UniProt Q5NUL3). Nature of the assay: GPR120 pERK AlphaScreen SureFire Assay (human GPR120 pERK assay). In kind it is cell-based. The note with it: CHOA12 or CHO-K1 cells stably transfected with the short form of human GPR120 receptor; phosphorylated ERK; read-out: EC50 values measured in the human GPR120 pERK assay. An excerpt: GPR120 activity was monitored by measuring phosphorylation of ERK (pERK), since G protein receptors are known to activate the ERK signaling cascade either directly and/or through recruitment of arrestin that serves as a scaffold for downstream signaling events.
GPR120 pERK AlphaScreen SureFire Assay
The human and mouse GPR120-mediated intracellular phosphorylated ERK assays were established using CHOA12 cells stably transfected with the short form of human or mouse GPR120 receptor. Cells were cultured in growth medium consisting of F-12 media (Invitrogen Cat. #11765) with 5% Charcoal/Dextran FBS (Invitrogen Cat. #12676-029), 500 μg/mL GENETICIN® (Life Technologies Cat. #10131-027) and 250 μg/mL Zeocin (Invitrogen Cat. #R250-01). Cells were cryo preserved at a concentration of 2×10^7 cells/mL, in 90% Charcoal/Dextran FBS and 10% DMSO, and frozen in liquid nitrogen at a low passage number.
For the pERK assay, 2×10^7 cells/mL cryopreserved human and mouse cells were thawed rapidly in a 37° C. water bath and added to a T-225 flask containing 50 mL growth medium. The flasks were placed in a tissue culture incubator overnight (37° C., 5% CO2). The next day, cells were harvested with trypsin (Gibco Cat. #25300-054), resuspended in serum-containing growth medium and counted using a Cellometer and volume adjusted to a concentration of 0.6×10^6 cells/mL. Cells were plated into 384-well clear bottom tissue culture plates (BD Cat. #353962) at 50 μL/well, for a density of 30,000 cells/well using a MULTIDROP® and incubated for 16-18 hours (overnight) at 37° C. with 5% CO2. The next day, cells were serum starved in 30 μL of F-12 media without any serum or antibiotics for 2 hours at 37° C.
Test compounds were 3-fold, 11-point serially diluted in DMSO in a REMP assay plate (Matrix Cat. #4307) by Tecan and 5 μL was transferred into an ECHO source plate (LabCyte Cat. #LC-0200). Cells were then stimulated with 50 nL of compound dilutions using ECHO liquid handler for 7 minutes at 37° C. Compounds ranged from final assay concentrations of 33.33 μM to 0.56 nM.
The media was then dumped and cells lysed with 20 μL of 1× Lysis buffer from the AlphaScreen SureFire Phospho-ERK 1/2 Kit (Perkin Elmer Cat. #6760617M). The lysis buffer was diluted 5-fold with water before use. The plate was agitated on a shaker for 10 minutes after which 2 μL was transferred into a 384-well white proxiplate (Perkin Elmer Cat. #6008289). The SureFire assay reagent mix was prepared by mixing 60 parts Reaction Buffer, 10 parts Activation Buffer, 1 part Donor Beads, 1 part Acceptor Beads (Perkin Elmer Cat. #TGRES10K). 3.5 μL/well of this reagent mix was manually added to the proxiplate with a multichannel pipettor. Plates were spun down at 1000 rpm for 2 minutes, followed by light-protected incubation at room temperature for 2 hours. The plates were read on the Alpha-technology compatible Envision multilabel plate reader using AlphaScreen protocol according to manufacturer's specifications. The agonist effect of compounds was expressed as 100×(average sample-average blank)/(average total−average blank) where sample is the luminescence activity in the presence of test compound, blank is equal to the luminescence activity in the presence of DMSO control and the total is signal induced by 50 μM linolenic acid as reference compound. Activation data for the test compound over a range of concentrations was plotted as percentage activation of the test compound (100%=maximum response). After correcting for background, EC50 values were determined. The EC50 is defined as the concentration of test compound which produces 50% of the maximal response and was quantified using the 4 parameter logistic equation to fit the data.
The human and mouse GPR120-mediated intracellular phosphorylated ERK assays were also established using CHO-K1 cells stably transfected with the short form of human or mouse GPR120 receptor. […]
(In general: In Alpha technology, singlet oxygen from a donor bead excites a nearby acceptor bead.)
For the compound `O=C(O)CCCC12CCC(OCc3ccsc3Br)(CC1)C2` [Example 54, 4-(4-((2-bromo-thiophen-3-yl)methoxy)bicyclo [2.2.1]heptan-1-yl)butanoic acid], the EC50 worked out at 1690 nM.

With `O=C(O)CCC12CCC(OCCc3ccccc3Oc3ccccc3)(CC1)C2` [Example 86, 3-(4-(2-Phenoxyphenethoxy)bicyclo[2.2.1]heptan-1-yl)propanoic acid], the concentration giving a half-maximal response (EC50) was 6990 nM.

Turning to `O=C(O)CCCC12CCC(OCc3cc(Cl)cc(OC(F)(F)F)c3)(CC1)C2` [Example 18, 4-(4-(3-chloro-5-(trifluorometh-oxy)benzyloxy)bicyclo[2.2.1]heptan-1-yl) butanoic acid], the half-maximal effective concentration (EC50) was found to be 250 nM.

With “3-(4-(2-phenoxybenzyloxy) bicyclo[2.2.1]heptan-1-yloxy) propanoic acid [Example 80]”, the EC50 came out at 2750 nM.

Consider `O=C(O)CCC12CCC(OCc3cc(F)cc(Oc4ccccc4)c3)(CC1)C2` [Example 90, 3-(4-((3-fluoro-5-phenoxybenzyl)oxy)bicyclo [2.2.1]heptan-1-yl) propanoic acid], for which the concentration for a half-maximal effect (EC50) was 1220 nM.

With `O=C(O)CCC12CCC(OCCc3cccc(Oc4ccccc4)c3)(CC1)C2` [Example 88, 3-(4-(3-phenoxyphenethoxy)bicyclo[2.2.1]heptan-1-yl)propanoic acid], the EC50 was 2640 nM.

Regarding `O=C(O)CCCC12CCC(OCc3cccc(Cl)c3F)(CC1)C2` [Example 45, 4-(4-(3-chloro-2-fluorobenzyl-oxy)bicyclo [2.2.1]heptan-1-yl)butanoic acid], the EC50 stood at 710 nM.

As for `O=C(O)CCCC12CCC(OCc3cccc(Cl)c3)(CC1)C2` [Example 23, 4-(4-(3-chloro-benzyloxy)bicyclo[2.2.1]heptan-1-yl) butanoic aicd], the EC50 worked out at 1150 nM.

On to `O=C(O)COCCC12CCC(OCc3cc(F)cc(Oc4ccccc4)c3)(CC1)C2` [Example 100, 2-(2-(4-((3-Fluoro-5-phenoxybenzyl)oxy)bicyclo[2.2.1]heptan-1-yl)ethoxy)acetic acid], for which the concentration giving a half-maximal response (EC50) stood at 570 nM.

As for `CS(=O)(=O)NC(=O)CCCC12CCC(OCc3cc(F)ccc3Oc3ccccc3)(CC1)C2` [Example 83, 4-(4-(5-Fluoro-2-phenoxybenzyloxy)bicyclo[2.2.1]heptan-1-yl)-N-(methylsulfonyl) butanamide], the EC50 turned out to be 400 nM.

In the case of `O=C(O)CCCC12CCC(OCc3cccc(Oc4ccccc4F)c3)(CC1)C2` [Example 16, 4-(4-(3-(2-fluorophenoxy)benzyloxy)bicyclo[2.2.1]heptan-1-yl) butanoic acid], the EC50 is 640 nM.

For `COc1ccc(Br)cc1COC12CCC(CCCC(=O)O)(CC1)C2` [Example 60, 4-(4-(5-bromo-2-methoxybenzyl-oxy)bicyclo [2.2.1]heptan-1-yl)butanoic acid], the EC50 was 4150 nM.

`CC(C)Oc1ccccc1COC12CCC(CCCC(=O)O)(CC1)C2` [Example 36, 4-(4-(2-isopropoxy-benzyloxy)bicyclo [2.2.1]heptan-1-yl)butanoic acid]: the concentration giving a half-maximal response (EC50) is 1550 nM.

With “3-(4-(1-(3-fluoro-5-(4- fluorophenoxy)phenyl)ethoxy) bicyclo[2.2.1]heptan-1-yloxy) propanoic acid [Example 82]”, the EC50 was determined as 980 nM.

For `Cc1ccc(Br)cc1COC12CCC(CCCC(=O)O)(CC1)C2` [Example 62, 4-(4-(5-bromo-2-methylbenzyl-oxy)bicyclo [2.2.1]heptan-1-yl)butanoic acid], the EC50 turned out to be 810 nM.

As to `Cc1nc(-c2cccc(COC34CCC(CCCC(=O)O)(CC3)C4)c2)no1` [Example 37, 4-(4-(3-(5-methyl-1,2,4-oxadiazol-3-yl)benzyloxy)bicyclo[2.2.1]heptan-1-yl) butanoic acid], the EC50 amounted to 3120 nM.

Regarding `CC(C)Oc1ccc(Cl)cc1COC12CCC(CCCC(=O)O)(CC1)C2` [Example 5, 4-(4-(5-chloro-2-isopropoxy-benzyloxy)bicyclo[2.2.1]heptan-1-yl) butanoic acid], the concentration giving a half-maximal response (EC50) stood at 1020 nM.

Regarding `O=C(O)CCCC12CCC(OCc3c(F)ccc(F)c3F)(CC1)C2` [Example 47, 4-(4-(2,3,6-trifluorobenzyl-oxy)bicyclo [2.2.1]heptan-1-yl)butanoic acid], the EC50 is 7810 nM.

`O=C(O)CCCC12CCC(OCc3ccc(Cl)c(Cl)c3)(CC1)C2` [Example 11, 4-(4-(3,4-dichlorobenzyl-oxy)bicyclo[2.2.1]heptan-1-yl) butanoic acid]: the half-maximal effective concentration (EC50) turned out to be 1090 nM.

Regarding `O=C(O)CCCC12CCC(OCc3cc([N+](=O)[O-])ccc3Cl)(CC1)C2` [Example 51, 4-(4-(2-chloro-5-nitrobenzyloxy)bicyclo[2.2.1]heptan-1-yl) butanoic acid], the EC50 came to 2390 nM.

For `COc1cc(COC23CCC(CCCC(=O)O)(CC2)C3)cc(OC)c1` [Example 21, 4-(4-(3,5-dimethoxybenzyl-oxy)bicyclo [2.2.1]heptan-1-yl)butanoic acid], the concentration for a half-maximal effect (EC50) was determined as 1920 nM.

For `O=C(O)CCCC12CCC(OCc3ccc(Cl)cc3)(CC1)C2` [Example 24, 4-(4-(4-chloro-benzyloxy)bicyclo[2.2.1]heptan-1-yl) butanoic acid], the EC50 stood at 2800 nM.

With `O=C(O)CCCC12CCC(OC3CCc4c(Cl)cc(Cl)cc43)(CC1)C2` (stereo not shown) [Example 9, 4-(4-(4,6-dichloro-2,3-dihydro-1H-inden-1-yloxy)bicyclo[2.2.1]heptan-1-yl) butanoic acid], the EC50 turned out to be 600 nM.

As for `O=C(O)COCC12CCC(OCc3cc(Cl)cc(OC(F)(F)F)c3)(CC1)C2` [Example 78, 2-((4-((3-chloro-5-(trifluoromethoxy)benzyl)oxy)bicyclo[2.2.1]heptan-1-yl)methoxy)acetic acid], the EC50 was found to be 940 nM.

On to `OCC(O)CCC12CCC(OCc3cc(F)cc(Oc4ccccc4)c3)(CC1)C2` (single isomer, unassigned) [Example 97, 4-(4-((3-Fluoro-5-phenoxybenzyl)oxy)bicyclo[2.2.1]heptan-1-yl)butane-1,2-diol], for which the EC50 came out at 2480 nM.

Regarding `CC(OC12CCC(CCCC(=O)O)(CC1)C2)c1cccc(C(F)(F)F)c1` (stereo not shown) [Example 8, 4-(4-(1-(3-(trifluoromethyl)phenyl)ethoxy)bicyclo[2.2.1]heptan-1-yl) butanoic acid], the EC50 turned out to be 2340 nM.

Consider “3-(4-(3-fluoro-5-(4- fluorophenoxy)benzyloxy) bicyclo[2.2.1]heptan-1-yloxy) propanoic acid [Example 81]”, for which the EC50 was 350 nM.

With `O=C(O)CCCC12CCC(OCc3cccc(C(F)(F)F)c3Cl)(CC1)C2` [Example 55, 4-(4-(2-chloro-3-(trifluoromethyl)benzyloxy) [2.2.1]heptan-1-yl)butanoic acid], the half-maximal effective concentration (EC50) was found to be 170 nM.

Take `O=C(O)CCC12CCC(OCCc3cccc4ccccc34)(CC1)C2` [Example 87, 3-(4-(2-(naphthalen-1-yl)ethoxy)bicyclo [2.2.1]heptan-1-yl) propanoic acid]: the half-maximal effective concentration (EC50) was determined as 1310 nM.

For the compound `O=C(O)COCC12CCC(OCc3cccc(Oc4ccccc4)c3)(CC1)C2` [Example 74, 2-((4-(3-phenoxybenzyloxy)bicyclo[2.2.1]heptan-1-yl)methoxy)acetic acid], the EC50 is 1430 nM.

Consider `COc1ccc(COC23CCC(CCCC(=O)O)(CC2)C3)c(F)c1` [Example 42, 4-(4-(2-fluoro-4-methoxybenzyl-oxy)bicyclo[2.2.1]heptan-1-yl) butanoic acid], for which the EC50 is 9100 nM.
